# Columns and labels:
# [1] = biological target: T1, Delta-5-Desaturase (D5D), membrane preparations of D5D-overexpressing HEK293 6E cells (Homo sapiens, UniProt O60427); assay: In vitro measurement of Delta-5-Desaturase inhibitory activity using DGLA-CoA and Arachidonyl-CoA mass spectrometric assays; format: biochemical; conditions: D5D membrane 10 μg/mL, one-hour incubation, average of at least two independent runs
# T1 construct: expressed in transfected cells; host or cells: HEK293 6E cells (membrane preparation)
# In short: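 Membranes from D5D-overexpressing HEK293 6E cells (10 μg/mL final) in pH 7.5 Tris buffer with MgCl2, octyl glucoside and TCEP were run with substrate solution holding 0.01 mM DGLA, NADH, ATP and CoA for 1 h at ambient temperature. Acetonitrile quench; DGLA-CoA and arachidonyl-CoA measured by RapidFire MRM-MS; 4-parameter IC50, ≥2 runs averaged.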
# [2] = biological target: T2, Delta-5-Desaturase (D5D) (Mus musculus, UniProt Q920L1); assay: In vivo measurement of Delta-5-Desaturase inhibitory activity (plasma AA/DGLA ratio in DIO mice); conditions: single oral dose 30 mg/kg, relative to vehicle group
# T2 construct: tissue Jackson Laboratories strain #3800050; host or cells: whole animal (DIO mice)
# T2 sequence (Q920L1 1-447): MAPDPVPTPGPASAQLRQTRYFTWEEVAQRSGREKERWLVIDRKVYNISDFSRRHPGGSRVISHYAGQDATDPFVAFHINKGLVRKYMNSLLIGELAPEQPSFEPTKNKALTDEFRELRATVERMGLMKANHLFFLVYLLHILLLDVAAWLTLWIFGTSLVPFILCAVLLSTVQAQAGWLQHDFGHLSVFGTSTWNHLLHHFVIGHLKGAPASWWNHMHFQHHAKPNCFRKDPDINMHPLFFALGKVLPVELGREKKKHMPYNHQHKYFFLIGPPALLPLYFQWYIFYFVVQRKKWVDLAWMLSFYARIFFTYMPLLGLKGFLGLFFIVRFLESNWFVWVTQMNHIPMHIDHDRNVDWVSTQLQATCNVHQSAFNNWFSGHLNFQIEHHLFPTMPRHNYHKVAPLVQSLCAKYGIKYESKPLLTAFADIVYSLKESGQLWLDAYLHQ
# Method: In Vivo Measurement of Delta-5-Desaturase Inhibitory Activity
# Diet-induced obese (DIO; Jackson Laboratories strain #[…]) mice were used to screen for pharmacodynamic (PD) activity of test compounds. Generally, 14 to 24 week old DIO mice, were administered test compounds formulated in the vehicle of 2% hydroxypropyl methylcellulose (HPMC) and 1% Tween80. Animals were dosed on body weight by oral gavage with a single dose (30 mg/kg) for PD studies. Necropsy included plasma collection for PUFA analysis. 10 μl of plasma or standards diluted in surrogate matrix (65 g/l bovine serum albumin in Dulbecco's phosphate-buffered saline) were mixed with 10 μl of an internal standard (100 μM alpha-linolenic acid-d14 (ALA-d14, Cayman Chemical)) in a 96 well plate. 100 μl of 2N NAOH was added to the mixture for subsequent saponification at 65° C. for 1 hour. The mixture was then acidified with 50 μl of formic acid followed by two consecutive hexane extractions. Hexane (500 μl) was added and the mixture thoroughly mixed by vortexing, followed by centrifugation at 4,000 rpm for 15 min. The hexane phase was transferred to a new 1 ml 96 well plate and the remaining aqueous layer was extracted with hexane. The organic extracts were combined and the solvent was removed by placing the plate under nitrogen gas at 55° C. 250 μl of 90% methanol was added to the plate followed by vortexing for 2 minutes. 200 μl of the samples were transferred to a new 96 well polypropylene plate. The samples were analyzed on a LC-MS/MS for the following PUFAs: arachidonic acid (AA), dihomo-gamma-linolenic acid (DGLA), with ALA-d14 as the internal standard. Description of the LC-MS/MS method: 5 μl of sample was injected onto a Poroshell 120 EC-C18 3.0×50 mm, 1.9 μm id column. […] The PUFA peak areas were quantified by using the SCIEX Analyst software. […] The relative decrease of the AA/DGLA ratio of the test compound administered group relative to the vehicle administered group was calculated and used as an index for the degree of D5D inhibition. […]
# [3] = tested on: Diet-Induced Obese (DIO) mice; assay: Assessment of D5D inhibitor in Diet-Induced Obese (DIO) mice; format: in vivo, Male C57BL/6J DIO mice; conditions: for Fat mass / Lean mass: day 22, EchoMRI; for Blood glucose: day 25, 4 hour fasted; for AA / Cholesterol / DGLA / Insulin / LDL cholesterol / Triglycerides: day 25, 4 hour fasted plasma; for Body weight / Liver weights / epididymal WAT / inguinal WAT: day 27
# Description: Assessment of D5D Inhibitor in Diet-Induced Obese (DIO) Mice
# Male C57BL/6J DIO mice (Jackson Laboratories, Stock No.: 380050) were fed high-fat diet (Research Diets, Inc., D12492) for 12 weeks. All animals were given free access to water and chow. Animals were acclimated to per os dosing for 3 days prior to the start of the experiment. Animals were randomized on body weight, fat mass, lean mass, and blood glucose concentrations in to groups of 8 to 10 animals per group. Animals were twice daily dosed per os with either: vehicle (2% hydroxypropyl methylcellulose and 1% tween 80 in water), Example 2 at 10 mg/kg, or 30 mg/kg (formulated in 2% hydroxypropyl methylcellulose and 1% tween 80 in water), or Example 45 at 3 mg/kg, or 10 mg/kg (formulated in 2% hydroxypropyl methylcellulose and 1% tween 80 in water). Three-day average (Example 2) or daily average (Example 45) food consumption was measured at the indicated times as shown in Table 17 and Table 18. Body composition (EchoMRI) was determined on day 78 for Example 2 and day 22 for Example 45. For Example 2, a non-fasted blood collection was performed on day 81; blood glucose was immediately measured, and plasma samples created from the remaining blood and used to measure DGLA and AA concentrations. On day 84, a 4-hour fasted blood collection was performed, and plasma samples were created from the blood and used to measure cholesterol, triglycerides, low-density lipoprotein (LDL) cholesterol, insulin, and adipokine (adiponectin, leptin, and resistin) levels. For Example 45, 4 hour fasted blood samples were collected on day 25 and blood glucose was measured immediately and the plasma samples created from the remaining blood were used to measure cholesterol, triglycerides, LDL cholesterol, insulin, DGLA and AA concentration. At the end of the studies, liver, epididymal white adipose tissue, inguinal white adipose tissue, mesenteric (only Example 2) white adipose tissue weights were recorded. Data was analyzed using GraphPad Prism v 7.04.
# The D5D inhibitor dose-dependently led to weight loss over the course of the experiment (Table 17 and Table 18) compared to vehicle controls. Consistently fat mass was reduced, along with lower inguinal, epididymal and mesenteric white adipose tissue (WAT) weights at necropsy. Blood glucose and plasma insulin levels were both reduced by the D5D inhibitor, along with reductions in plasma cholesterol and triglycerides. Evidence of target engagement was established by observing increases in plasma DGLA and decreases in plasma AA.
# [4] = Example 45 3 mg/kg twice daily per os
# [5] = Example 45 10 mg/kg twice daily per os
# T1 sequence (O60427 whole entry, species assumed): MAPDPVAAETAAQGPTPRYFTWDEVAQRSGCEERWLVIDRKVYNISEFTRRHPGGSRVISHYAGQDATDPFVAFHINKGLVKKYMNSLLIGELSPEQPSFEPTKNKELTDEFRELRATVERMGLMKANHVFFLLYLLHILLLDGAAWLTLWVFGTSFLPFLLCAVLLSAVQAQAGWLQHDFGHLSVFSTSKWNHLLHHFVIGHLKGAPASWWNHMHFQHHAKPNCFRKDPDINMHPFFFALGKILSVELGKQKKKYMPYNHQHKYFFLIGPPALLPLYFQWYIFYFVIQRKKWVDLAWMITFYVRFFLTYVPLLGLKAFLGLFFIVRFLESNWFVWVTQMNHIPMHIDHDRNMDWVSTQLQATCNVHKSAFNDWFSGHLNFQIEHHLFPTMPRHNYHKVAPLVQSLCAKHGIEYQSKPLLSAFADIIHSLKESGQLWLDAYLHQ
smiles,measurement,setting,value
"Cc1cn2c(=O)c(-c3cnn(CC(F)(F)C(F)(F)F)c3)c(C(F)(F)F)nc2n1C [Example 52, 1,2-dimethyl-6-[1-(2,2,3,3,3-pentafluoropropyl)-1H-pyrazol-4-yl]-7-(trifluoromethyl)-1H,5H-imidazo[1,2-a]pyrimidin-5-one]",IC50,[1],47.5 nM
same,Average % D5D Inhibition expressed as Plasma Endogenous AA/DGLA Ratio,[2],74%
"Cn1c(Cl)cn2c(=O)c(-c3cnn(CC(F)(F)C(F)(F)F)c3)c(C(F)(F)F)nc12 [Example 48, 2-chloro-1-methyl-6-[1-(2,2,3,3,3-pentafluoropropyl)-1H-pyrazol-4-yl]-7-(trifluoromethyl)-1H,5H-imidazo[1,2-a]pyrimidin-5-one]",IC50,[1],6.8 nM
same,Average % D5D Inhibition expressed as Plasma Endogenous AA/DGLA Ratio,[2],68%
"O=c1c(-c2cnn(CC(F)(F)C(F)(F)F)c2)c(C(F)(F)F)nc2sc(CO)nn12 [Example 45, 2-(hydroxymethyl)-6-[1-(2,2,3,3,3-pentafluoropropyl)-1H-pyrazol-4-yl]-7-(trifluoromethyl)-5H-[1,3,4]thiadiazolo[3,2-a]pyrimidin-5-one]",IC50,[1],21.1 nM
same,Food consumption,"[3]; Example 45 3 mg/kg twice daily per os, day 0, daily average",2.5 ± 0.3 g/day
same,Food consumption,"[3]; Example 45 3 mg/kg twice daily per os, day 7, daily average",3.0 ± 0.3 g/day
same,Food consumption,"[3]; Example 45 3 mg/kg twice daily per os, day 14, daily average",2.7 ± 0.3 g/day
same,Food consumption,"[3]; Example 45 3 mg/kg twice daily per os, day 21, daily average",2.7 ± 0.2 g/day
same,Fat mass,[3]; [4],19.7 ± 2.2 g
same,Lean mass,[3]; [4],27.4 ± 1.5 g
same,Blood glucose,[3]; [4],176.1 ± 9.4 mg/dL
same,AA,[3]; [4],88.6 ± 18.9 µg/mL
same,Cholesterol,[3]; [4],160.4 ± 43.7 mg/dL
same,DGLA,[3]; [4],286.9 ± 47.7 µg/mL
same,Insulin,[3]; [4],7.2 ± 1.8 ng/mL
same,LDL cholesterol,[3]; [4],130.6 ± 25.1 mg/dL
same,Triglycerides,[3]; [4],32.6 ± 5.2 mg/dL
same,Body weight,[3]; [4],47.8 ± 2.8 g
same,Liver weights,[3]; [4],2.6 ± 0.4 g
same,epididymal WAT,[3]; [4],1.8 ± 0.3 g
same,inguinal WAT,[3]; [4],2.2 ± 0.5 g
same,Food consumption,"[3]; Example 45 3 mg/kg twice daily per os, day 27, daily average",2.5 ± 0.2 g/day
same,Food consumption,"[3]; Example 45 10 mg/kg twice daily per os, day 0, daily average",2.6 ± 0.3 g/day
same,Food consumption,"[3]; Example 45 10 mg/kg twice daily per os, day 7, daily average",2.6 ± 0.3 g/day
same,Food consumption,"[3]; Example 45 10 mg/kg twice daily per os, day 14, daily average",2.4 ± 0.2 g/day
same,Food consumption,"[3]; Example 45 10 mg/kg twice daily per os, day 21, daily average",2.5 ± 0.2 g/day
same,Fat mass,[3]; [5],16.9 ± 2.3 g
same,Lean mass,[3]; [5],26.7 ± 1.1 g
same,Blood glucose,[3]; [5],156.1 mg/dL
same,AA,[3]; [5],38.2 ± 3.6 µg/mL
same,Cholesterol,[3]; [5],162.8 mg/dL
same,DGLA,[3]; [5],212.6 µg/mL
same,Insulin,[3]; [5],5.2 ± 0.7 ng/mL
same,LDL cholesterol,[3]; [5],129.0 mg/dL
same,Triglycerides,[3]; [5],26.3 ± 5.5 mg/dL
same,Body weight,[3]; [5],43.8 ± 3.1 g
same,Liver weights,[3]; [5],2.6 ± 0.5 g
same,epididymal WAT,[3]; [5],1.7 ± 0.3 g
same,inguinal WAT,[3]; [5],1.9 ± 0.2 g
same,Food consumption,"[3]; Example 45 10 mg/kg twice daily per os, day 27, daily average",2.4 ± 0.2 g/day
